Test results reported in PubChem BioAssay (NCI).
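Interpolation was linear, between the two tested concentrations surrounding the appropriate level; five concentrations were tested over 48 hours in 96-well plates. Abbreviation: GI50, concentration required for 50% inhibition of growth. The concentration for full growth arrest is given as TGI.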

Columns and labels:
Experiment in all cases: DTP human tumour cell line panel, 48 h
[1] = tested on: BT-549 breast
[2] = tested on: HCT-116 colon
[3] = tested on: HOP-62 NSCLC
[4] = tested on: IGROV1 ovarian
[5] = tested on: KM12 colon
[6] = tested on: MOLT-4 leukemia
[7] = tested on: NCI-H460 lung
[8] = tested on: SW-620 colon
[9] = tested on: UO-31 renal
[10] = tested on: SK-MEL-2 melanoma

Compound	TGI [1] [µM]	TGI [2] [µM]	TGI [3] [µM]	TGI [4] [µM]	TGI [5] [µM]	TGI [6] [µM]	TGI [7] [µM]	TGI [8] [µM]	TGI [9] [µM]	TGI [10] [µM]	GI50 [3] [µM]	GI50 [4] [µM]	GI50 [5] [µM]	GI50 [6] [µM]	GI50 [7] [µM]	GI50 [10] [µM]	GI50 [8] [µM]	GI50 [9] [µM]	GI50 [2] [µM]
C=CCn1c(=O)c(C(=O)Nc2nc(C34CC5CC(CC(C5)C3)C4)cs2)c(O)c2ccccc21	> 100	> 100	> 100	> 100	> 100	> 100	> 100	> 100	> 100	–	–	–	–	–	–	–	–	–	–
Cc1nc(C)c(N2CCN([N+](=O)[O-])CC2)c(=O)[nH]1	> 100	> 100	> 100	> 100	> 100	> 100	> 100	> 100	> 100	–	–	–	–	–	–	–	–	–	–
Cn1c(SCc2ccc(F)cc2)nnc1C12CC3CC(CC(C3)C1)C2	–	> 100	> 100	78.2	–	57.1	> 100	> 100	> 100	> 100	–	–	–	–	–	–	–	–	–
NC(=O)c1c(NC(=O)c2ccccc2)sc2c1CCC(=O)C2	–	–	> 100	13.3	5.61	8.3	> 100	2.93	2.32	7.21	3.66	1.01	1.36	1.12	3.04	2.4	0.352	0.865	–
C[N+](C)([O-])CCOc1cc2c(c3ccccc13)-c1ccccc1C2=O	–	> 68	69.6	99.8	66.5	> 35.3	43.2	86.3	40	33.2	–	–	–	–	–	–	–	–	–
CCCCCC#CCOC(=O)C(=[N+]=[N-])P(=O)(c1ccccc1)c1ccccc1	> 10	> 10	> 10	> 10	> 10	> 10	> 10	> 10	> 10	–	–	–	–	–	–	–	–	–	–
O=C1OCC/C1=N/O	–	> 100	–	> 100	> 100	> 100	> 100	> 100	> 100	> 100	–	–	–	–	–	–	–	–	–
Cc1c(O)nc(-n2[nH]c3c(c2=O)CCCC3)[nH]c1=O	> 100	> 100	–	> 100	> 100	> 100	> 100	> 100	> 100	> 100	–	–	–	–	–	–	–	–	–
CCCNc1ncnc2c1ncn2C	–	> 100	> 100	> 100	> 100	> 100	–	> 100	> 100	> 100	–	–	–	–	–	–	–	–	–
CCOc1cc(/C=C2/C(C)=NN(c3cccc(Cl)c3)/C2=N/c2nc3ccccc3s2)ccc1O	–	67.5	> 100	> 100	–	> 100	64	> 100	52.8	41.4	–	–	–	–	–	–	–	–	–
O=P(O)(O)C(N=C(Nc1ccccc1)Nc1ccccc1)P(=O)(O)O	> 100	> 100	> 100	> 100	> 100	–	> 100	–	> 100	–	–	–	–	–	–	–	–	–	–
C[n+]1c(/C=C/c2c(O)ccc3ccccc23)ccc2ccccc21	–	10.3	13.8	12.7	11.2	23.4	14.5	16.1	12	13.3	6.25	4.6	4.33	7.01	6.32	5.91	6.06	1.68	3.06
CSC1=N/C(=C\c2ccc(C)cc2)C(=O)N1CN1CCCCC1	–	> 100	> 100	> 100	> 100	> 100	–	> 100	> 100	> 100	–	–	–	–	–	–	–	–	–
CCOC(=O)C1S/C(=N\C(=N)N[N+](=O)[O-])N=C1C (configuration not stated)	–	> 100	> 100	> 100	> 100	> 100	> 100	> 100	> 100	> 100	–	–	–	–	–	–	–	–	–
Cc1ccc(S(=O)(=O)n2c3c(c4ccccc42)CCN2C[C@H]([C@H](C)Br)CC[C@@H]32)cc1	–	–	> 100	> 100	> 100	> 100	> 100	> 100	> 100	> 100	–	–	–	–	–	–	–	–	–
COC(C)(C)C1(O)CC[C@@H](C)CC1=O (some centres not stated)	> 100	> 100	> 100	> 100	> 100	> 100	> 100	> 100	> 100	–	–	–	–	–	–	–	–	–	–
O=C(O)c1ccccc1CC(Cc1ccc2c(c1)CCC2)C(=O)O (configuration not stated)	–	> 100	> 100	> 100	> 100	> 100	> 100	> 100	> 100	> 100	–	–	–	–	–	–	–	–	–
O=C1C=C/C(=N\N=C(c2ccccc2)c2ccccc2)O1	–	–	> 10	> 10	> 10	> 10	–	> 10	–	–	–	–	–	–	–	–	–	–	–

Compound	TGI [1] [µM]	TGI [2] [µM]	TGI [3] [µM]	TGI [4] [µM]	TGI [5] [µM]	TGI [6] [µM]	TGI [7] [µM]	TGI [8] [µM]	TGI [9] [µM]	TGI [10] [µM]	GI50 [3] [µM]	GI50 [4] [µM]	GI50 [5] [µM]	GI50 [6] [µM]	GI50 [7] [µM]	GI50 [10] [µM]	GI50 [8] [µM]	GI50 [9] [µM]	GI50 [2] [µM]
COc1cc(OC)cc(C(=O)CC(=O)c2cc(OC)cc(OC)c2)c1	> 100	> 100	> 100	> 100	> 100	> 100	> 100	> 100	> 100	–	–	–	–	–	–	–	–	–	–
CC(=O)NC1C(OCc2ccccc2)OC(CO)C(O)C1OCC(=O)N[C@@H](C)C(=O)N[C@H](CCC(=O)NCCCNc1c2ccccc2nc2cccc([N+](=O)[O-])c12)C(N)=O (some centres not stated)	0.287	0.034	0.576	0.606	0.397	11	0.0609	–	0.341	–	–	–	–	–	–	–	–	–	–
COc1ccc(C2OC(c3ccncc3)=NN2C)cc1F (configuration not stated)	–	> 100	> 100	> 100	> 100	> 100	> 100	> 100	> 100	> 100	–	–	–	–	–	–	–	–	–
COc1ccc(C(=O)/C=C/c2ccc(OCCCOc3ccc(/C=C/C(=O)c4ccc(OC)cc4)cc3)cc2)cc1	–	> 100	> 100	> 100	> 100	> 100	> 100	> 100	> 100	> 100	–	–	–	–	–	–	–	–	–
O=C1NC2c3c(I)sc(I)c3C(O)C2O1 (configuration not stated)	–	> 100	> 100	> 100	> 100	> 100	> 100	> 100	> 100	> 100	–	–	–	–	–	–	–	–	–
CCOC(=O)c1c(-c2ccc(O)c(OC)c2)c(C#N)c(=S)n(C2OC(CO)C(O)C(O)C2O)c1-c1ccccc1 (configuration not stated)	–	> 100	> 100	> 100	> 100	> 100	> 100	> 100	> 100	–	–	–	–	–	–	–	–	–	–
O=c1[nH][nH]c(=O)n1CCCCCCn1c(=O)[nH][nH]c1=O	> 100	> 100	–	–	> 100	> 100	> 100	> 100	> 100	> 100	–	–	–	–	–	–	–	–	–
Cc1ccc(/C=N\NC2c3cc(Cl)ccc3Nc3nc(=O)[nH]c(C)c32)cc1 (configuration not stated)	–	> 100	> 100	> 100	> 100	> 100	> 100	> 100	> 100	> 100	–	–	–	–	–	–	–	–	–
C=C1C(=O)CC2C1CC(=O)/C(C)=C/CCC(C)(O)C2O (configuration not stated)	–	6.92	43.7	20.4	29.8	6.2	45.5	> 33.7	17.3	22.9	–	–	–	–	–	–	–	–	–
NS(=O)(=O)c1ccc(NC(=S)/N=C/C2=C(O)c3ccccc3C2=O)cc1	–	> 100	> 100	> 100	> 100	> 100	> 100	> 100	85.6	> 100	–	–	–	–	–	–	–	–	–
Clc1ccc(-c2nnc3sc4nc5ccccc5c-4nn23)c(Cl)c1	93.8	> 100	> 100	–	> 100	> 100	> 100	> 100	> 100	82.2	–	–	–	–	–	–	–	–	–
O=C(O)C(Cl)(Cl)Cl	–	> 100	–	> 100	> 100	> 100	> 100	> 100	> 100	> 100	–	–	–	–	–	–	–	–	–
O=C(O)COc1ccccc1C(=O)Nc1ccccc1	–	> 100	> 100	> 100	> 100	> 100	> 100	> 100	> 100	> 100	–	–	–	–	–	–	–	–	–
O=C1OC(C2Cc3ccc4ccccc4c3C2=O)c2ccccc21 (configuration not stated)	> 100	> 100	–	> 100	> 100	> 100	> 100	> 100	> 100	> 100	–	–	–	–	–	–	–	–	–
CC(O)CNC(=O)C(C)Oc1ccc(OCC2CCCCC2)cc1 (configuration not stated)	–	> 100	–	> 100	> 100	> 100	> 100	–	> 100	> 100	–	–	–	–	–	–	–	–	–
CCOS(C)(=O)=O	> 100	> 100	–	> 100	> 100	> 100	> 100	> 100	> 100	> 100	–	–	–	–	–	–	–	–	–
S=C1NC2=C(CSC/C2=C\c2cccc(Br)c2)C(c2cccc(Br)c2)N1 (configuration not stated)	–	> 100	> 100	> 100	> 100	> 100	> 100	> 100	–	> 100	–	–	–	–	–	–	–	–	–
